{"source": "patent US20100298141A1", "about": "“SUBSTITUTED PYRIDINE N-OXIDE HERBICIDES” (E. I. DU PONT DE NEMOURS AND COMPANY, priority 2007, published 2010)", "experiment_in_all_cases": "Test F preemergence test", "key": {"Italian ryegrass": {"system": "Italian ryegrass", "assay_type": "in vivo, Lolium multiflorum", "conditions": "scale 0 to 100", "in_short": "(§1)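 Visual ratings relative to controls, taken after 14 to 21 days in a greenhouse. Test chemicals, formulated in a surfactant-containing non-phytotoxic solvent mixture, were applied preemergence to sown seeds or postemergence to sugarcane plants.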"}, "field bindweed": {"system": "field bindweed", "assay_type": "in vivo, Convolvulus arvensis", "conditions": "scale 0 to 100", "in_short": "as §1"}, "green foxtail": {"system": "green foxtail", "assay_type": "in vivo, Setaria viridis", "conditions": "scale 0 to 100", "in_short": "as §1"}, "mustard": {"system": "mustard", "assay_type": "in vivo, Brassica nigra", "conditions": "scale 0 to 100", "in_short": "as §1"}, "large crabgrass": {"system": "large crabgrass", "assay_type": "in vivo, Digitaria sanguinalis", "conditions": "scale 0 to 100", "in_short": "as §1"}, "common chickweed": {"system": "common chickweed", "assay_type": "in vivo, Stellaria media", "conditions": "scale 0 to 100", "in_short": "as §1"}, "guineagrass": {"system": "guineagrass", "assay_type": "in vivo, Panicum maximum", "conditions": "scale 0 to 100", "in_short": "as §1"}, "annual bluegrass": {"system": "annual bluegrass", "assay_type": "in vivo, Poa annua", "conditions": "scale 0 to 100", "in_short": "as §1"}, "common purslane": {"system": "common purslane", "assay_type": "in vivo, Portulaca oleracea", "conditions": "scale 0 to 100", "in_short": "as §1"}, "prickly sida": {"system": "prickly sida", "assay_type": "in vivo, Sida spinosa", "conditions": "scale 0 to 100", "in_short": "as §1"}, "common ragweed": {"system": "common ragweed", "assay_type": "in vivo, Ambrosia elation", "conditions": "scale 0 to 100", "in_short": "as §1"}, "southern sandbur": {"system": "southern sandbur", "assay_type": "in vivo, Cenchrus echinatus", "conditions": "scale 0 to 100", "in_short": "as §1"}, "naked crabgrass": {"system": "naked crabgrass", "assay_type": "in vivo, Digitaria nuda", "conditions": "scale 0 to 100", "in_short": "as §1"}, "pitted morningglory": {"system": "pitted morningglory", "assay_type": "in vivo, Ipomoea lacunosa", "conditions": "scale 0 to 100", "in_short": "as §1"}, "Surinam grass": {"system": "Surinam grass", "assay_type": "in vivo, Brachiaria decumbens", "conditions": "scale 0 to 100", "in_short": "as §1"}, "bermudagrass": {"system": "bermudagrass", "assay_type": "in vivo, Cynodon dactylon", "conditions": "scale 0 to 100", "in_short": "as §1"}, "common mallow": {"system": "common mallow", "assay_type": "in vivo, Malva sylvestris", "conditions": "scale 0 to 100", "in_short": "as §1"}, "barnyardgrass": {"system": "barnyardgrass", "assay_type": "in vivo, Echinochloa crus-galli", "in_short": "as §1"}, "quackgrass": {"system": "quackgrass", "assay_type": "in vivo, Elytrigia repens", "conditions": "scale 0 to 100", "in_short": "as §1"}}}
{"smiles": "CC(Oc1c(C[S+]([O-])c2ccc(Cl)c[n+]2[O-])c(C(F)(F)F)nn1C)C(F)(F)F", "note": "(stereo not shown) [Compound 87]", "values": [{"measurement": "Plant response rating, Ryegrass, Italian", "setting": "Italian ryegrass; 16 g ai/ha, preemergence", "value": 100}, {"measurement": "Ryegrass, Italian plant response rating", "setting": "Italian ryegrass; 125 g ai/ha, preemergence", "value": 100}, {"measurement": "Plant response rating, Ryegrass, Italian", "setting": "Italian ryegrass; Preemergence, 62 g ai/ha", "value": 100}, {"measurement": "Plant response rating, Ryegrass, Italian", "setting": "Italian ryegrass; Preemergence, 31 g ai/ha", "value": 100}, {"measurement": "Plant response rating, Field Bindweed", "setting": "field bindweed; 16 g ai/ha, preemergence", "value": 0}, {"measurement": "Field Bindweed plant response rating", "setting": "field bindweed; 125 g ai/ha, preemergence", "value": 40}, {"measurement": "Plant response rating, Field Bindweed", "setting": "field bindweed; Preemergence, 62 g ai/ha", "value": 20}, {"measurement": "Plant response rating, Field Bindweed", "setting": "field bindweed; Preemergence, 31 g ai/ha", "value": 0}, {"measurement": "Plant response rating, Foxtail, Green", "setting": "green foxtail; 16 g ai/ha, preemergence", "value": 35}, {"measurement": "Foxtail, Green plant response rating", "setting": "green foxtail; 125 g ai/ha, preemergence", "value": 98}, {"measurement": "Plant response rating, Foxtail, Green", "setting": "green foxtail; Preemergence, 62 g ai/ha", "value": 80}, {"measurement": "Plant response rating, Foxtail, Green", "setting": "green foxtail; Preemergence, 31 g ai/ha", "value": 65}, {"measurement": "Plant response rating, Black Mustard", "setting": "mustard; 16 g ai/ha, preemergence", "value": 0}, {"measurement": "Black Mustard plant response rating", "setting": "mustard; 125 g ai/ha, preemergence", "value": 100}, {"measurement": "Plant response rating, Black Mustard", "setting": "mustard; Preemergence, 62 g ai/ha", "value": 90}, {"measurement": "Plant response rating, Black Mustard", "setting": "mustard; Preemergence, 31 g ai/ha", "value": 30}, {"measurement": "Plant response rating, Crabgrass, Large", "setting": "large crabgrass; 16 g ai/ha, preemergence", "value": 30}, {"measurement": "Crabgrass, Large plant response rating", "setting": "large crabgrass; 125 g ai/ha, preemergence", "value": 100}, {"measurement": "Plant response rating, Crabgrass, Large", "setting": "large crabgrass; Preemergence, 62 g ai/ha", "value": 95}, {"measurement": "Plant response rating, Crabgrass, Large", "setting": "large crabgrass; Preemergence, 31 g ai/ha", "value": 65}, {"measurement": "Plant response rating, Chickweed", "setting": "common chickweed; 16 g ai/ha, preemergence", "value": 0}, {"measurement": "Chickweed plant response rating", "setting": "common chickweed; 125 g ai/ha, preemergence", "value": 100}, {"measurement": "Plant response rating, Chickweed", "setting": "common chickweed; Preemergence, 62 g ai/ha", "value": 100}, {"measurement": "Plant response rating, Chickweed", "setting": "common chickweed; Preemergence, 31 g ai/ha", "value": 100}, {"measurement": "Plant response rating, Guineagrass", "setting": "guineagrass; 16 g ai/ha, preemergence", "value": 90}, {"measurement": "Guineagrass plant response rating", "setting": "guineagrass; 125 g ai/ha, preemergence", "value": 100}, {"measurement": "Plant response rating, Guineagrass", "setting": "guineagrass; Preemergence, 62 g ai/ha", "value": 100}, {"measurement": "Plant response rating, Guineagrass", "setting": "guineagrass; Preemergence, 31 g ai/ha", "value": 100}, {"measurement": "Plant response rating, Bluegrass", "setting": "annual bluegrass; 16 g ai/ha, preemergence", "value": 35}, {"measurement": "Bluegrass plant response rating", "setting": "annual bluegrass; 125 g ai/ha, preemergence", "value": 100}, {"measurement": "Plant response rating, Bluegrass", "setting": "annual bluegrass; Preemergence, 62 g ai/ha", "value": 80}, {"measurement": "Plant response rating, Bluegrass", "setting": "annual bluegrass; Preemergence, 31 g ai/ha", "value": 70}, {"measurement": "Plant response rating, Purslane", "setting": "common purslane; 16 g ai/ha, preemergence", "value": 0}, {"measurement": "Purslane plant response rating", "setting": "common purslane; 125 g ai/ha, preemergence", "value": 100}, {"measurement": "Plant response rating, Purslane", "setting": "common purslane; Preemergence, 62 g ai/ha", "value": 70}, {"measurement": "Plant response rating, Purslane", "setting": "common purslane; Preemergence, 31 g ai/ha", "value": 20}, {"measurement": "Plant response rating, Prickly Sida", "setting": "prickly sida; 16 g ai/ha, preemergence", "value": 0}, {"measurement": "Prickly Sida plant response rating", "setting": "prickly sida; 125 g ai/ha, preemergence", "value": 100}, {"measurement": "Plant response rating, Prickly Sida", "setting": "prickly sida; Preemergence, 62 g ai/ha", "value": 75}, {"measurement": "Plant response rating, Prickly Sida", "setting": "prickly sida; Preemergence, 31 g ai/ha", "value": 50}, {"measurement": "Plant response rating, Ragweed", "setting": "common ragweed; 16 g ai/ha, preemergence", "value": 0}, {"measurement": "Ragweed plant response rating", "setting": "common ragweed; 125 g ai/ha, preemergence", "value": 90}, {"measurement": "Plant response rating, Ragweed", "setting": "common ragweed; Preemergence, 62 g ai/ha", "value": 70}, {"measurement": "Plant response rating, Ragweed", "setting": "common ragweed; Preemergence, 31 g ai/ha", "value": 0}, {"measurement": "Plant response rating, Sandbur", "setting": "southern sandbur; 16 g ai/ha, preemergence", "value": 50}, {"measurement": "Sandbur plant response rating", "setting": "southern sandbur; 125 g ai/ha, preemergence", "value": 100}, {"measurement": "Plant response rating, Sandbur", "setting": "southern sandbur; Preemergence, 62 g ai/ha", "value": 100}, {"measurement": "Plant response rating, Sandbur", "setting": "southern sandbur; Preemergence, 31 g ai/ha", "value": 100}, {"measurement": "Plant response rating, Crabgrass, Naked", "setting": "naked crabgrass; 16 g ai/ha, preemergence", "value": 95}, {"measurement": "Crabgrass, Naked plant response rating", "setting": "naked crabgrass; 125 g ai/ha, preemergence", "value": 100}, {"measurement": "Plant response rating, Crabgrass, Naked", "setting": "naked crabgrass; Preemergence, 62 g ai/ha", "value": 100}, {"measurement": "Plant response rating, Crabgrass, Naked", "setting": "naked crabgrass; Preemergence, 31 g ai/ha", "value": 100}, {"measurement": "Plant response rating, Morningglory", "setting": "pitted morningglory; 16 g ai/ha, preemergence", "value": 0}, {"measurement": "Morningglory plant response rating", "setting": "pitted morningglory; 125 g ai/ha, preemergence", "value": 90}, {"measurement": "Plant response rating, Morningglory", "setting": "pitted morningglory; Preemergence, 62 g ai/ha", "value": 35}, {"measurement": "Plant response rating, Morningglory", "setting": "pitted morningglory; Preemergence, 31 g ai/ha", "value": 0}, {"measurement": "Plant response rating, Surinam Grass", "setting": "Surinam grass; 16 g ai/ha, preemergence", "value": 65}, {"measurement": "Surinam Grass plant response rating", "setting": "Surinam grass; 125 g ai/ha, preemergence", "value": 100}, {"measurement": "Plant response rating, Surinam Grass", "setting": "Surinam grass; Preemergence, 62 g ai/ha", "value": 100}, {"measurement": "Plant response rating, Surinam Grass", "setting": "Surinam grass; Preemergence, 31 g ai/ha", "value": 100}, {"measurement": "Plant response rating, Bermudagrass", "setting": "bermudagrass; 16 g ai/ha, preemergence", "value": 25}, {"measurement": "Bermudagrass plant response rating", "setting": "bermudagrass; 125 g ai/ha, preemergence", "value": 95}, {"measurement": "Plant response rating, Bermudagrass", "setting": "bermudagrass; Preemergence, 62 g ai/ha", "value": 70}, {"measurement": "Plant response rating, Bermudagrass", "setting": "bermudagrass; Preemergence, 31 g ai/ha", "value": 60}, {"measurement": "Plant response rating, Mallow", "setting": "common mallow; 16 g ai/ha, preemergence", "value": 50}, {"measurement": "Mallow plant response rating", "setting": "common mallow; 125 g ai/ha, preemergence", "value": 100}, {"measurement": "Plant response rating, Mallow", "setting": "common mallow; Preemergence, 62 g ai/ha", "value": 100}, {"measurement": "Plant response rating, Mallow", "setting": "common mallow; Preemergence, 31 g ai/ha", "value": 75}, {"measurement": "Plant response rating, Barnyardgrass", "setting": "barnyardgrass; 16 g ai/ha, preemergence, scale 0 to 100 (0 no effect, 100 complete control)", "value": 60}, {"measurement": "Barnyardgrass plant response rating", "setting": "barnyardgrass; 125 g ai/ha, preemergence, scale 0 to 100", "value": 100}, {"measurement": "Plant response rating, Barnyardgrass", "setting": "barnyardgrass; Preemergence, 62 g ai/ha, scale 0 to 100", "value": 100}, {"measurement": "Plant response rating, Barnyardgrass", "setting": "barnyardgrass; Preemergence, 31 g ai/ha, scale 0 to 100", "value": 75}, {"measurement": "Plant response rating, Quackgrass", "setting": "quackgrass; 16 g ai/ha, preemergence", "value": 60}, {"measurement": "Quackgrass plant response rating", "setting": "quackgrass; 125 g ai/ha, preemergence", "value": 90}, {"measurement": "Plant response rating, Quackgrass", "setting": "quackgrass; Preemergence, 62 g ai/ha", "value": 80}, {"measurement": "Plant response rating, Quackgrass", "setting": "quackgrass; Preemergence, 31 g ai/ha", "value": 60}]}
